Laboratory results as given in patent US20190291112A1, “DROPLET MICROFLUIDICS FOR DRUG SCREENING” (University of Macau, priority 2018, published 2019).

What was measured:
Type in all cases: cell-based, human
[1] = test system: NAS1607 primary nasopharyngeal tumor sample; assay: On chip drug screening of primary tumor dissociated cells
Protocol: All human studies were conducted with the approval of the Panel on Research Ethics of University of Macau and the Research Ethics Committee of Kiang Wu Hospital, according to the Materials Transfer Agreement between University of Macau and Kiang Wu Hospital. Informed consent for sampling and publication without identifiable information was obtained from all participating patients. All patient sample names were double encoded by the university and the hospital, respectively, to remove any trace of patient identity during sample collection, transfer, processing and analysis. Primary tumors were obtained from surgery conducted at Kiang Wu Hospital immediately after tumor resection. Tumor tissue was dissociated as previously described. Briefly, tumor tissue was first cut into small pieces by a scalpel, then transferred to a 50 mL conical tube containing 5 mL Digestion Buffer I (DMEM/F12 medium containing 5% FBS, 5 μg/mL insulin, 500 ng/mL hydrocortisone, 10 ng/mL epidermal growth factor (EGF), 20 ng/mL cholera toxin, 300 U/mL collagenase III and 100 U/mL hyaluronidase), and digested for no more than 12 h with shaking at 100 rpm in humidified incubator at 37° C. supplemented with 5% CO2. After spinning down at 400 g at ambient temperature for 2 min, the cells were resuspended with 2 mL Digestion Buffer II (DMEM/F12 medium containing 5 mg/mL dispase II and 0.1 mg/mL deoxyribonuclease I), followed by digestion at ambient temperature for 5 min. The cells were then washed with 10 mL HBSS (Life Technologies, USA). […]
Briefly, cells at final concentrations of 1-2×10^6 cells per mL were aliquoted in 0.2 mL PCR tubes, then mixed with corresponding drugs and 2 μM ethidium homodimer 1 (Life Technologies, USA) by manual pipetting. […] Brightfield and red fluorescence images (Ex. 531/40 nm, Em. 593/40 nm) were taken under 10× magnification (Life Technologies EVOS FL Imaging System, USA).
(§1) For on chip assays, the number of cells was counted in brightfield and red fluorescence images from each well respectively. Cell viability was calculated as follows: […]

MDA-MB-231 cells [2] = assay: 96-well microtiter plate drug screening assay (Alamar Blue); conditions: 96-well plate
Protocol: (§2) Jurkat E6.1 cells (ATCC® TIB-152™) and MDA-MB-231 cells (ATCC® HTB-26™) were used as models for suspended and adherent cancer cell lines respectively. Jurkat cell line was derived from human acute T cell leukemia, whereas MDA-MB-231 cell line was derived from human metastatic breast adenocarcinoma.
(§3) Microtiter plate drug screening assays were carried out on 96-well clear round flat-bottom plates (Corning, USA) or 384-well white square flat-bottom plates (Corning, USA).
(§4) First, 5.0×10^5 or 1.0×10^5 cells were seeded per well for 96-well and 384-well plates respectively. Drugs were diluted with Dulbecco's phosphate-buffered saline (DPBS) (Life Technologies, USA), and subsequently added to achieve final drug concentrations as indicated on the graphs. Afterwards, the plates were transferred to humidified incubator at 37° C. supplemented with 5% CO2 for 16-24 h incubation. Finally, Alamar Blue assay was used to measure cell viability. Fluorescence intensity (Ex. 560 nm, Em. 590 nm) using auto-cutoff was measured from bottom on plate reader (Molecular Devices SpectraMax MS Plate Reader, USA). Cells treated with 0.1% dimethyl sulfoxide (DMSO) were used as negative control, while no cells were added to blank control. All experiments were performed in triplicate for 96-well plates and in quadruplicates for 384-well relates.
(§5) For microliter plate assays, average relative fluorescence signal measured by plate reader from 6 reads of each well was used as raw data point. Cell viability was calculated as follows: […]
(§6) where Sample represented raw data points of each sample well, whereas DMSO control and Blank represented average raw data points of all DMSO control and Blank wells, respectively.

Jurkat cells = assay: as above; conditions: 96-well plate, 16-24 h
Protocol: as §2, §3, §4, §5, §6

[3] = test system: primary tumor cell NAS1604 (nasopharyngeal tumor); assay: On chip drug screening of primary tumor dissociated cells
MDA-MB-231 cells [4] = assay: On chip drug screening assay (ethidium homodimer 1 staining)
Protocol: as §2
On chip drug screening was performed using the PDMS-based microfluidic chip as described above. A 500 μL glass syringe (Hamilton, USA) and polytetrafluoroethylene (PTFE) tubings with appropriate bore (Cole Parmer, USA) was used to connect between the syringe pump (Harvard Apparatus PHD Ultra Syringe Pump, USA) and the microfluidic chip. Fluorinert® FC-40 (Sigma-Aldrich, USA) supplemented with 2% 008-Fluorosurfactant (Ran Biotechnologies, USA) was used as oil phase; relevant cell culture medium, supplemented with 1% (w/v) methyl cellulose (Sigma-Aldrich, USA) was used as aqueous phase. Cells treated with 0.1% dimethyl sulfoxide (DMSO) were used as negative control.
Briefly, cells at final concentrations of 1-2×10^6 cells per mL were aliquoted in 0.2 mL PCR tubes, then mixed with corresponding drugs and 2 μM ethidium homodimer 1 (Life Technologies, USA) by manual pipetting. Next, […], cell-drug mixtures were loaded into the tubing, consecutively segregated by oil phase at withdrawal rate of 200 μL/h by syringe pump. After loading all mixtures, the tubing was inserted into the microfluidic chip, which was back-flushed with oil phase at 500 μL/h by syringe pump. After that, the mixtures were infused at 25 μL/h by syringe pump. Finally, the inlet and outlet tubings were cut and sealed with Vaseline (Vaseline, USA). The chips were placed in 150 mm cell culture dish (Coming, USA) containing wet paper towels, and transferred to humidified incubator at 37° C. supplemented with 5% CO2 for 16-24 h incubation. Brightfield and red fluorescence images (Ex. 531/40 nm, Em. 593/40 nm) were taken under 10× magnification (Life Technologies EVOS FL Imaging System, USA).
For on chip assays, brightfield and red fluorescence images were initially processed by ImageJ v.1.50i, Cell counting was either performed manually or by Matlab v.R201.5a based on the workflow shown on FIG. 5B. Briefly, cells from brightfield and red fluorescence images were detected separately using a heuristic Hough Transformation model based on threshold implementation on circular diameter and pixel intensity. Next, each recognized cell was dissected into 10×10 pixels matrix for analysis of its pixel intensity. Subsequently, two layers of multi-radii analysis of pixel intensity around the center of each matrix distinguished signal from noise. Afterwards, cells were distinguished from noise based on the brightfield image, whereas cell viability was determined by signal intensity of corresponding red fluorescence image. Finally, positional information (defined by row: x, and column: y) and size (defined by radius: r) of discrete image matrix was used to classify each cell as “live” or “dead”. The total number of cells in each image corresponding to each droplet formation well on chip was summarized as a table in CSV format for calculation of cell viability. […]
as §1
where Total cells and Dead cells referred to the total number of cells counted from brightfield and red fluorescence images, respectively. […]

| IC50 (MDA-MB-231 cells [2]; Homo sapiens) [µM] | IC50 (Jurkat cells; Homo sapiens) [µM] | IC50 (MDA-MB-231 cells [4]; Homo sapiens) [µM] | SMILES | dose dependence of normalized cell viability ([1]; NAS1607, 16-24 h, normalized to mock treatment) | range of droplet cell viability ([3]; NAS1604, 1 μM bortezomib) [%] | mean cell viability compared with other treatments ([3]; NAS1604, 1 μM, versus DMSO and cisplatin) | susceptibility ([1]; NAS1607, 100 μM and 33 μM) | IC50 (MDA-MB-231 cells [2]) [µM] | IC50 (Jurkat cells) [µM] | mean cell viability compared with other treatments ([3]; NAS1604, 20 μM) | range of droplet cell viability ([3]; NAS1604, 20 μM cisplatin) [%] | IC50 (MDA-MB-231 cells [4]) [µM] |
| --- | --- | --- | --- | --- | --- | --- | --- | --- | --- | --- | --- | --- |
| > 10 | 22.1 | > 10 | CC(C)C[C@H](NC(=O)[C@H](Cc1ccccc1)NC(=O)c1cnccn1)B(O)O [bortezomib] | inverse correlation | 42.6 | highest mean cell viability |  |  |  |  |  |  |
|  |  |  | N.N.[Cl][Pt][Cl] [cisplatin] |  |  |  | leveled off | > 50 | 39 | lowest mean cell viability | 64.0 | 4.2 |
